The values that follow come from ChEMBL document CHEMBL5528009, “Benzothiozinone derivatives with anti-tubercular Activity-Further side chain investigation” (Eur J Med Chem, 2024).

In general, IC50 refers to the concentration needed to halve the response being measured. Broadly, the MIC is the lowest concentration that inhibits growth of the organism. Low values mean a more susceptible organism, high ones a less susceptible organism.

For data set [1], the target named is T1, Decaprenylphosphoryl-beta-D-ribose oxidase (Mycobacterium tuberculosis (strain ATCC 25618 / H37Rv), UniProt P9WJF1).
T1 sequence (P9WJF1 whole entry): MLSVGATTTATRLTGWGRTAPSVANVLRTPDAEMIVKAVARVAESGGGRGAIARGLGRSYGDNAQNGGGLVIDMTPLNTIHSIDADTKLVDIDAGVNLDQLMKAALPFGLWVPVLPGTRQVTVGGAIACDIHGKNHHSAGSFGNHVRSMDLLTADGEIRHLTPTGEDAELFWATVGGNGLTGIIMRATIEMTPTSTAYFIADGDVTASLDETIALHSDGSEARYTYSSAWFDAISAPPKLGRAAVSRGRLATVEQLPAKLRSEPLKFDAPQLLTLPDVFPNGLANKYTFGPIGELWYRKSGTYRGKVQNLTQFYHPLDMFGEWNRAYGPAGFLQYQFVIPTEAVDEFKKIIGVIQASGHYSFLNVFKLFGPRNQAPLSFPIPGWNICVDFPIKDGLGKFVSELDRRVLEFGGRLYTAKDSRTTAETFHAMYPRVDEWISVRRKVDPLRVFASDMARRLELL
As to the kind of experiment: Inhibition of recombinant Mycobacterium tuberculosis DprE1 expressed in Escherichia coli measured after 120 mins by Amplex Red/peroxidase coupled assay.

Data set [2] concerns Mycobacterium tuberculosis. As to the kind of experiment: Antitubercular activity against Mycobacterium tuberculosis H37Rv (ATCC 25618) incubated for […] by MABA assay. The class given is functional. (Alamar Blue is a resazurin reagent that responds to reducing activity.)
For data set [3], the target named is T2, Decaprenylphosphoryl-beta-D-ribose oxidase (Mycobacterium tuberculosis (strain ATCC 25618 / H37Rv)) (UniProt P9WJF1).
T2 sequence (whole entry): T1 sequence (P9WJF1 whole entry)
The data set can be described thus: Time-dependent covalent inhibition of recombinant Mycobacterium tuberculosis DprE1 expressed in Escherichia coli by Amplex Red/peroxidase coupled assay.

Data set [4] in a line: Metabolic stability in NADPH-fortified mouse liver microsomes assessed as CYP450-mediated stability incubated for 120 mins by LC/MS analysis. The format is ADME, Microsome. Conditions: 2 h. Background: Liver microsomes are vesicles of endoplasmic reticulum, rich in cytochrome P450 enzymes.
The nature of data set [5]: Metabolic stability in NADPH-fortified human liver microsomes assessed as CYP450-mediated stability incubated for 120 mins by LC/MS analysis. The class given is ADME, Microsome. Conditions: 2 h.

Converted amounts (≈) assume the structure as drawn. The source made the active and inactive calls. The rule behind the calls is not given here.

Consider `CN(CC#CC1CCCCC1)c1nc(=O)c2cc(C(F)(F)F)cc([N+](=O)[O-])c2s1`, for which the IC50 in data set [1] was determined as 18 nM. Besides, the MIC in data set [2] came to 0.002 µM (≈ 0.000851 µg/mL). Also, the TDI entry in data set [3] was “Active”. For the compound `CN(CC#CCN1CCSC1)c1nc(=O)c2cc(C(F)(F)F)cc([N+](=O)[O-])c2s1`, the MIC in data set [2] is 0.029 µM (≈ 0.0129 µg/mL). Still for that read-out and setting: then `CN(CC#Cc1ccccc1F)c1nc(=O)c2cc(C(F)(F)F)cc([N+](=O)[O-])c2s1`, with 0.011 µM (≈ 0.00481 µg/mL); and `CN(CC#Cc1cncs1)c1nc(=O)c2cc(C(F)(F)F)cc([N+](=O)[O-])c2s1`, with 0.129 µM (≈ 0.055 µg/mL). In turn, `CN(CC#CC(C)(C)C)c1nc(=O)c2cc(C(F)(F)F)cc([N+](=O)[O-])c2s1` registered an MIC in data set [2] of 0.023 µM (≈ 0.00919 µg/mL). With `CN(Cc1cn(-c2ccccc2)nn1)c1nc(=O)c2cc(S(C)(=O)=O)cc([N+](=O)[O-])c2s1`, the MIC in data set [2] was found to be 0.047 µM (≈ 0.0222 µg/mL). On the same count and under the same terms, then `CN(C/C=C/C1CCCCC1)c1nc(=O)c2cc(C(F)(F)F)cc([N+](=O)[O-])c2s1`, with 0.002 µM (≈ 0.000855 µg/mL); and `CN(CC#CC1CCCC1)c1nc(=O)c2cc(C(F)(F)F)cc([N+](=O)[O-])c2s1`, with 0.005 µM (≈ 0.00206 µg/mL); and `CN(CC#CC(O)CN1CCCCC1)c1nc(=O)c2cc(C(F)(F)F)cc([N+](=O)[O-])c2s1` (configuration not stated), with 1.05 µM (≈ 0.493 µg/mL). On the same count and under the same terms, under `CN(CC#Cc1ccc2c(c1)OCCO2)c1nc(=O)c2cc(C(F)(F)F)cc([N+](=O)[O-])c2s1` stands 0.092 µM (≈ 0.0439 µg/mL).

`CN1CCN(CC#CCN(C)c2nc(=O)c3cc(C(F)(F)F)cc([N+](=O)[O-])c3s2)CC1` returned a minimum inhibitory concentration (MIC) in data set [2] of 1.92 µM (≈ 0.876 µg/mL). In data set [2], `CN(C/C=C/c1ccccc1)c1nc(=O)c2cc(C(F)(F)F)cc([N+](=O)[O-])c2s1` had an MIC of 0.024 µM (≈ 0.0101 µg/mL). Besides, the TDI entry in data set [3] is “Active”. For the compound `CN(C/C=C/C1CCCC1)c1nc(=O)c2cc(C(F)(F)F)cc([N+](=O)[O-])c2s1`, in data set [2], the MIC stood at 0.002 µM (≈ 0.000827 µg/mL). Same read-out and setting: under `CN(CC#CCN1CCSCC1)c1nc(=O)c2cc(C(F)(F)F)cc([N+](=O)[O-])c2s1` stands 0.028 µM (≈ 0.0128 µg/mL); under `CN(CC#CCN1CC2(COC2)C1)c1nc(=O)c2cc(C(F)(F)F)cc([N+](=O)[O-])c2s1`, 0.423 µM (≈ 0.192 µg/mL); under `CN(CC#Cc1ccc2c(c1)OCO2)c1nc(=O)c2cc(C(F)(F)F)cc([N+](=O)[O-])c2s1`, 0.145 µM (≈ 0.0672 µg/mL). For `CN(CC#Cc1ccsc1)c1nc(=O)c2cc(C(F)(F)F)cc([N+](=O)[O-])c2s1`, the Stability entry in data set [4] and in data set [5] was “Stable” in each case. Further, in data set [2], it took 0.014 µM (≈ 0.00596 µg/mL) to inhibit growth (MIC). The compound `CN(CC#CCc1ccccc1)c1nc(=O)c2cc(C(F)(F)F)cc([N+](=O)[O-])c2s1` registered an MIC in data set [2] of 0.053 µM (≈ 0.023 µg/mL). In data set [3], the TDI result is “Active”. In data set [2], `COc1cccc(C#CCN(C)c2nc(=O)c3cc(C(F)(F)F)cc([N+](=O)[O-])c3s2)c1` had an MIC of 0.093 µM (≈ 0.0418 µg/mL).

For the compound `CN(C/C=C\C1CC1)c1nc(=O)c2cc(C(F)(F)F)cc([N+](=O)[O-])c2s1`, the MIC in data set [2] was found to be 0.042 µM (≈ 0.0162 µg/mL).

Take `CN(CC#CCN1CC[S+]([O-])CC1)c1nc(=O)c2cc(C(F)(F)F)cc([N+](=O)[O-])c2s1`: in data set [2], inhibition of growth (MIC) required 1.05 µM (≈ 0.498 µg/mL).
